Several values for one entry are separate records, joined by “and”; a condition that tells them apart may be missing. Identical values can stand only once.
What was measured:
Balb C mice [1] = experiment: Formalin-induced paw-licking test
Dopaminergic Receptor = experiment: Involvement of dopaminergic receptors; type: in vivo, mice
[2] = test system: Alpha-2 Adrenergic Receptor; experiment: Involvement of adrenergic receptors; type: in vivo, mice
Balb C mice [3] = experiment: Acetic acid induced writhing test; type: in vivo; details: 50 mg/kg
COX-1 = COX-1 (Homo sapiens, UniProt P23219); experiment: Cyclooxygenase-1; type: biochemical; details: IC50 COX-1, ±SEM, triplicate
COX-2 = target: T1, COX-2 (Homo sapiens, UniProt P35354); experiment: Cyclooxygenase-2; type: biochemical; details: for IC50: IC50 COX-2, ±SEM, triplicate
T1 sequence (P35354 18-604): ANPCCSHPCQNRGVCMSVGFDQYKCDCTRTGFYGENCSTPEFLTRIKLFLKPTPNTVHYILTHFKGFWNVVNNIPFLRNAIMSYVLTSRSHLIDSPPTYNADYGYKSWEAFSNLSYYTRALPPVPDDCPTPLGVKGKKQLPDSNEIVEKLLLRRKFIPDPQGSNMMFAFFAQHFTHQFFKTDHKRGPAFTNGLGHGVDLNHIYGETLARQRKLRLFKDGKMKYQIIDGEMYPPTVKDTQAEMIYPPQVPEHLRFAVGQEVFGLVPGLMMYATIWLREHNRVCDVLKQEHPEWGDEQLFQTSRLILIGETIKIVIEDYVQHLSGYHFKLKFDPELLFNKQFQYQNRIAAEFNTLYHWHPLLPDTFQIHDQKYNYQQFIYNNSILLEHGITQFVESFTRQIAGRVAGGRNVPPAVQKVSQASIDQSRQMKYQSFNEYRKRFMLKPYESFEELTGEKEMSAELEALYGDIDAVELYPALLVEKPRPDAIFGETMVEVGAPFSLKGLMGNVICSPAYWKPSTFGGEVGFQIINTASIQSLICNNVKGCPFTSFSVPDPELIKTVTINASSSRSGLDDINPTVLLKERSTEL

Balb C mice [4] = experiment: Tail immersion; type: in vivo
Balb C mice [5] = experiment: Acute toxicity study; type: in vivo; details: I/P, highest tested dose 150 mg/kg, 24 hours
[6] = 10 mg/kg, with naloxone (N, 2 mg/kg s.c.)
[7] = haloperidol alone, 1 mg/kg i.p.
[8] = 25 mg/kg, with naloxone (N, 2 mg/kg s.c.)
[9] = 50 mg/kg, with naloxone (N, 2 mg/kg s.c.)
[10] = 25 mg/kg after haloperidol (HL, 1 mg/kg)
[11] = 50 mg/kg after haloperidol (HL, 1 mg/kg)
[12] = 25 mg/kg after yohimbine (YH, 1 mg/kg)
[13] = 50 mg/kg after yohimbine (YH, 1 mg/kg)
[14] = 5 mg/kg, with naloxone (N, 2 mg/kg s.c.)

Chain of COX-1 (P23219 24-599): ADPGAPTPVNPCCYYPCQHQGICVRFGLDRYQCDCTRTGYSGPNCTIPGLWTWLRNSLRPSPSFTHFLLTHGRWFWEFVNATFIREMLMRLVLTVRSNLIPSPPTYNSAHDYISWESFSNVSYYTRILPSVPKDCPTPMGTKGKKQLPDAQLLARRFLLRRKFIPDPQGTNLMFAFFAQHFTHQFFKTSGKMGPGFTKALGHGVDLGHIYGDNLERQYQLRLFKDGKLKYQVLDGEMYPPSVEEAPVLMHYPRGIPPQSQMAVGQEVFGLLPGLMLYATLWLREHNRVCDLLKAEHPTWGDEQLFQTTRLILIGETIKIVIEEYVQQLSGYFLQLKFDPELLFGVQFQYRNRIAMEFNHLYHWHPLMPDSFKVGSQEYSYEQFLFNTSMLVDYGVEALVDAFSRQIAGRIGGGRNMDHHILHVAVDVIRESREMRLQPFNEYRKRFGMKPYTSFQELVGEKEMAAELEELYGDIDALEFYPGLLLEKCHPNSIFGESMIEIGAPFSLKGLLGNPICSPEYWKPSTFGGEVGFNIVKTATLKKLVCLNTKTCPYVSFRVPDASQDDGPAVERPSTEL

COc1ccc2c(c1)c(CC(=O)O)c(C)n2C(=O)c1ccc(Cl)cc1 [Indomethacin, indomethacin, reference compound]
Inhibition (%) 1st Phase (Balb C mice [1]; 10 mg/kg): 23.69±3.24%
Inhibition (%) 2nd Phase (Balb C mice [1]; 10 mg/kg): 74.34±2.86%
Licking Time 1st Phase (Balb C mice [1]; 10 mg/kg): 38.65 ± 1.37 s
Licking Time 2nd Phase (Balb C mice [1]; 10 mg/kg): 18.96 ± 1.342 s
Inhibition (%) 1st Phase (Balb C mice [1]; [6]): 11.64±1.20%
Licking Time 1st Phase (Balb C mice [1]; [6]): 44.75 ± 1.76 s
Licking Time 2nd Phase (Balb C mice [1]; [6]): 25.00 ± 1.249 s

O=C(CCCN1CCC(O)(c2ccc(Cl)cc2)CC1)c1ccc(F)cc1 [Haloperidol, haloperidol, reference compound]
% Activity (Dopaminergic Receptor; [7]): 17.50±1.28%
Writhing (Dopaminergic Receptor; [7]): 55.78±2.02

COC(=O)[C@@H]1[C@H]2C[C@H]3c4[nH]c5ccccc5c4CCN3C[C@@H]2CC[C@@H]1O [Yohimbine, yohimbine, reference compound]
% Activity ([2]; yohimbine alone, 1 mg/kg i.p.): 15.08±1.15%
Writhing ([2]; yohimbine alone, 1 mg/kg i.p.): 57.4±2.02

O=C(O)Cc1ccccc1Nc1c(Cl)cccc1Cl [diclofenac sodium]
Inhibition of writhing (Balb C mice [3]; n=6): 85%
Inhibition of writhing (Balb C mice [3]; n=6, listed as diclofenac): 84.96%

CC(=O)CC(C[N+](=O)[O-])c1ccccc1 (stereo not shown) [Compound 9, 5-nitro-4-phenylpentan-2-one]
IC50 (COX-1): 67.6 ± 1.02 µM
Selectivity Index (SI) (IC50 COX-1/IC50 COX-2) (COX-2): 0.91
IC50 (COX-2): 73.5 ± 1.38 µM

CCC[C@](C)(C=O)[C@@H]1CC(=O)N(c2ccccc2)C1=O [Compound 4, (S)-2-((S)-2,5-dioxo-1-phenylpyrrolidin-3-yl)-2-methylpentanal]
Inhibition of writhing (Balb C mice [3]; n=6): 52.2%
Tail flick Response (%) (Balb C mice [4]; 25 mg/kg i.p., 15 Minutes): 11.1%
Tail flick Response (%) (Balb C mice [4]; 25 mg/kg i.p., 30 Minutes): 14.8%
Tail flick Response (%) (Balb C mice [4]; 25 mg/kg i.p., 45 Minutes): 16.3%
Tail flick Response (%) (Balb C mice [4]; 25 mg/kg i.p., 60 Minutes): 18.9%
Tail flick Response (%) (Balb C mice [4]; 25 mg/kg i.p., 75 Minutes): 29.5%
Tail flick Response (%) (Balb C mice [4]; 25 mg/kg i.p., 75 Minutes, listed as Comp 4): 29.5%
Tail flick Response (%) (Balb C mice [4]; 25 mg/kg i.p., 90 Minutes): 19.8%
Tail flick Response (%) (Balb C mice [4]; 50 mg/kg i.p., 15 Minutes): 14.8%
Tail flick Response (%) (Balb C mice [4]; 50 mg/kg i.p., 30 Minutes): 22.7%
Tail flick Response (%) (Balb C mice [4]; 50 mg/kg i.p., 45 Minutes): 33.7%
Tail flick Response (%) (Balb C mice [4]; 50 mg/kg i.p., 60 Minutes): 42.1%
Tail flick Response (%) (Balb C mice [4]; 50 mg/kg i.p., 75 Minutes): 53.4%
Tail flick Response (%) (Balb C mice [4]; 50 mg/kg i.p., 75 Minutes, listed as Comp 4): 53.4%
Tail flick Response (%) (Balb C mice [4]; 50 mg/kg i.p., 90 Minutes): 46.2%
Tail flick Response (%) (Balb C mice [4]; 50 mg/kg i.p., 90 Minutes, listed as Comp 4): 46.2%
Inhibition (%) 1st Phase (Balb C mice [1]; 25 mg/kg): 22.30±0.85%
Inhibition (%) 2nd Phase (Balb C mice [1]; 25 mg/kg): 38.94±2.88%
Licking Time 1st Phase (Balb C mice [1]; 25 mg/kg): 39.35 ± 1.231 s
Licking Time 2nd Phase (Balb C mice [1]; 25 mg/kg): 45.12 ± 1.145 s
Inhibition (%) 1st Phase (Balb C mice [1]; [8]): 17.47±1.89%
Inhibition (%) 2nd Phase (Balb C mice [1]; [8]): 33.76±2.53%
Licking Time 1st Phase (Balb C mice [1]; [8]): 41.80 ± 1.33 s
Licking Time 2nd Phase (Balb C mice [1]; [8]): 48.95 ± 1.40 s
Inhibition (%) 1st Phase (Balb C mice [1]; 50 mg/kg): 36.16±4.47%
Inhibition (%) 2nd Phase (Balb C mice [1]; 50 mg/kg): 50.66±3.84%
Licking Time 1st Phase (Balb C mice [1]; 50 mg/kg): 32.33 ± 1.356 s
Licking Time 2nd Phase (Balb C mice [1]; 50 mg/kg): 36.45 ± 1.232 s
Inhibition (%) 1st Phase (Balb C mice [1]; [9]): 23.69±1.44%
Inhibition (%) 2nd Phase (Balb C mice [1]; [9]): 42.15±1.43%
Licking Time 1st Phase (Balb C mice [1]; [9]): 38.65 ± 1.25 s
Licking Time 2nd Phase (Balb C mice [1]; [9]): 42.75 ± 1.65 s
% Activity (Dopaminergic Receptor; [10]): 16.52±1.25%
Writhing (Dopaminergic Receptor; [10]): 56.42±1.05
% Activity (Dopaminergic Receptor; [11]): 16.70±1.16%
Writhing (Dopaminergic Receptor; [11]): 56.23±1.05
Acute toxicity (adverse effect, change in body weight, mortality) (Balb C mice [5]): safe
IC50 (COX-1): 128 µM
% Activity [2, 12]: 15.58±1.44%
Writhing [2, 12]: 57.09±2.20
% Activity [2, 13]: 16.08±1.08%
Writhing [2, 13]: 56.73±1.05
Selectivity Index (SI) (IC50 COX-1/IC50 COX-2) (COX-2): 1.94
IC50 (COX-2): 65 µM and 65.9 µM

CN1CC[C@]23c4c5ccc(O)c4O[C@H]2[C@@H](O)C=C[C@H]3[C@H]1C5 [Morphine, morphine, reference compound]
Tail flick Response (%) (Balb C mice [4]; 5 mg/kg, 15 Minutes): 48.1%
Tail flick Response (%) (Balb C mice [4]; 5 mg/kg, 30 Minutes): 56.1%
Tail flick Response (%) (Balb C mice [4]; 5 mg/kg, 45 Minutes): 75%
Tail flick Response (%) (Balb C mice [4]; 5 mg/kg, 60 Minutes): 85%
Tail flick Response (%) (Balb C mice [4]; 5 mg/kg, 75 Minutes): 80.2%
Tail flick Response (%) (Balb C mice [4]; 5 mg/kg, 75 Minutes, listed as morphine): 80.2%
Tail flick Response (%) (Balb C mice [4]; 5 mg/kg, 90 Minutes): 78.4%
Tail flick Response (%) (Balb C mice [4]; 5 mg/kg, 90 Minutes, listed as morphine): 78.4%
Inhibition (%) 1st Phase (Balb C mice [1]; 5 mg/kg): 87.16±3.32%
Inhibition (%) 2nd Phase (Balb C mice [1]; 5 mg/kg): 96.34±0.66%
Licking Time 1st Phase (Balb C mice [1]; 5 mg/kg): 6.50 ± 1.153 s
Licking Time 2nd Phase (Balb C mice [1]; 5 mg/kg): 2.70 ± 1.340 s
Inhibition (%) 1st Phase (Balb C mice [1]; [14]): 2.68±1.20%
Inhibition (%) 2nd Phase (Balb C mice [1]; [14]): 1.44±0.28%
Licking Time 1st Phase (Balb C mice [1]; [14]): 49.29 ± 1.52 s
Licking Time 2nd Phase (Balb C mice [1]; [14]): 72.83 ± 1.152 s

— article PMC8001115 (Drug Design, Development and Therapy, 2021)
